Laboratory results published in PubChem BioAssay AID624167 (Sanford-Burnham Center for Chemical Genomics, 2012).
The source made the active and inactive calls.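 How the source made its calls: active means mean IC50 for reducing PEG3 promoter reporter signal at or below a set limit, with IC50 above the limit in both counter screens; inactive means the rest, including counter screen hits.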

Experiments:
Assay in all cases: Peg3 promoter luciferase inhibitors, potency, dose response, cell-based, HeLa, CREF/GAPDH counter-screen panel (AID 624167)
PEG-3 [1] = target: PEG-3 (UniProt Q6IN02); conditions: HeLa PEG-Prom luciferase reporter, overnight, CREF/GAPDH counter-screens, mean of runs
PEG-3 [2] = conditions: HeLa PEG-Prom luciferase reporter, overnight, CREF/GAPDH counter-screens
Rat fibroblasts (CREF) = conditions: CREF/GAPDH counter-screens
[3] = run 1, dose range 1, individual replicate IC50 per panel
[4] = run 2, dose range 1, individual replicate IC50 per panel

PEG-3 (UniProt Q6IN02), sequence (Q6IN02 whole entry, looked up): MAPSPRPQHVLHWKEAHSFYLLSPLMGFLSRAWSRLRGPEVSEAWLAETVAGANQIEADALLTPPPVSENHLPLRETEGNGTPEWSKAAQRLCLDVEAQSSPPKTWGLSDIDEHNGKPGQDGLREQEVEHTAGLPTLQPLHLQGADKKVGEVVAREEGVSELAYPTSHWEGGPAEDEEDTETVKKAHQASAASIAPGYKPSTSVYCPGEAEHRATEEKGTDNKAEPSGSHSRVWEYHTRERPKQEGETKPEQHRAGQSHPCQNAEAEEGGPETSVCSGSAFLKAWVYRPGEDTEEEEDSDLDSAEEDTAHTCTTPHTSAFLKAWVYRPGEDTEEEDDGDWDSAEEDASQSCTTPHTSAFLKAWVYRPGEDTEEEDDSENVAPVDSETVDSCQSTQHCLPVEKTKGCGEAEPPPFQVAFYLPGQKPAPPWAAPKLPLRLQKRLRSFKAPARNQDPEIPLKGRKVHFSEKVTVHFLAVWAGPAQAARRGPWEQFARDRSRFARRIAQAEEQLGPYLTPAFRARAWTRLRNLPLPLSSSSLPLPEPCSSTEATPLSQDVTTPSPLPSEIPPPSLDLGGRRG

Row | Structure (SMILES) | IC50 (PEG-3 [1]) | IC50 (PEG-3 [2]; [3]) | IC50 (PEG-3 [2]; [4]) | IC50 (Rat fibroblasts (CREF); mean of runs) | IC50 (Rat fibroblasts (CREF); [3]) | IC50 (Rat fibroblasts (CREF); [4])
1 | O=C(CN1C(=O)c2ccccc2S1(=O)=O)c1ccc2c(c1)OCCO2 | 573 nM | 730 nM | 415 nM | 1610 nM | 1280 nM | 1940 nM
2 | O=C(Nc1nc2cc3c(cc2s1)OCO3)C1=COCCO1 | 1970 nM | 1680 nM | 2250 nM | 2290 nM | 1920 nM | 2660 nM
3 | CN(C)CCCN(C(=O)c1ccc(S(=O)(=O)N2CCc3ccccc3C2)cc1)c1nc2ccc(F)cc2s1 | 10000 nM | 11300 nM | 8740 nM | 13400 nM | 9840 nM | 17000 nM
4 | S=C(NN=C(c1ccccc1)c1ccccn1)N(Cc1ccccn1)Cc1ccccn1 | 2190 nM | 2580 nM | 1800 nM | 6990 nM | 4590 nM | 9400 nM
5 | Cc1cc(C(=O)COC(=O)c2ccccc2O)c(C)n1Cc1cccs1 | 3320 nM | 1790 nM | 4860 nM | 1360 nM | 812 nM | 1900 nM
6 | Cc1ccccc1OCC(=O)Nc1cccc(C(=O)O)c1 | 1850 nM | 1600 nM | 2100 nM | 18400 nM | 35800 nM | 1110 nM
7 | Cc1cc(C(=O)COC(=O)c2ccccc2O)c(C)n1CC1CCCO1 (stereo not drawn) | inactive | 1240 nM | > 100000 nM | 3390 nM | 3340 nM | 3440 nM
8 | C[C@@H]1C[C@@H]([C@H](O)CC2CC(=O)NC(=O)C2)C(=O)[C@@H](C)C1 | 1010 nM | 1640 nM | 373 nM | 8140 nM | 1850 nM | 14400 nM
9 | O=C(Cn1ncc(Cl)c(Cl)c1=O)N1CCc2ccccc21 | 8730 nM | 10100 nM | 7380 nM | 14300 nM | 18500 nM | 10000 nM
10 | O=C(Nc1ccccn1)c1cc2ccccc2o1 | 4540 nM | 5060 nM | 4010 nM | 1820 nM | 1350 nM | 2290 nM
11 | COCCn1c(C)cc(C(=O)COC(=O)c2ccccc2Br)c1C | inactive | 32100 nM | 53300 nM | – | – | –
12 | NC(=O)c1nsc(C(=O)N(c2ccccc2F)C(C(=O)NCc2ccccc2)c2ccc(O)cc2)c1N (stereo not drawn) | inactive | 39400 nM | > 100000 nM | – | – | –
13 | CCN1CCc2c(sc(NC(=O)c3ccc(S(=O)(=O)N4CCCCCC4)cc3)c2C(=O)NC)C1 | inactive | 21200 nM | 24500 nM | – | – | –

Further lines, with some results ahead:

Row | IC50 (PEG-3 [1]) | Structure (SMILES) | IC50 (PEG-3 [2]; [3]) | IC50 (PEG-3 [2]; [4]) | IC50 (Rat fibroblasts (CREF); mean of runs) | IC50 (Rat fibroblasts (CREF); [3]) | IC50 (Rat fibroblasts (CREF); [4])
14 | 1640 nM | Cc1ccc(-c2nc(-c3ccccn3)no2)cc1Cl | 1190 nM | 2090 nM | 1310 nM | 1220 nM | 1400 nM
15 | 8800 nM | COc1cccc(-c2sc3ccccc3c2-c2ccc(OCCN(C)C)cc2)c1 | 10000 nM | 7600 nM | 14400 nM | 14600 nM | 14200 nM
16 | 3370 nM | Cc1ccc(C(=O)Nc2nc3ccccc3[nH]2)cc1 | 2020 nM | 4710 nM | 521 nM | 523 nM | 519 nM
17 | 865 nM | COC(=O)Cc1[nH]n(-c2nc3ccccc3s2)c(=O)c1C(C)=Nc1ccc(C)cc1 | 980 nM | 751 nM | 14800 nM | 25200 nM | 4520 nM
18 | 3900 nM | Cc1ccccc1-c1nc(-c2ccccn2)no1 | 2980 nM | 4810 nM | 1330 nM | 1080 nM | 1570 nM
19 | 2760 nM | Cc1ccc(-c2cc3c(nn2)-c2ccccc2C3=O)cc1 | 2560 nM | 2950 nM | 337 nM | 270 nM | 403 nM
20 | inactive | CC(C)c1ccc(-c2nc3ccccc3s2)cc1 | 14000 nM | 40200 nM | – | – | –
